In patent publication US20240383905A1, “FGFR INHIBITORS AND METHODS OF USE THEREOF” (3H PHARMACEUTICALS CO., LTD., priority 2021, published 2024):

Experiments:
FGFR3 = molecular target: T1, FGFR3 (Homo sapiens, UniProt P22607); assay: FGFR3 Biochemical Caliper Assay (KinEASE-TK kit); details: ratio FGFR3/FGFR2 of the biochemical assay
T1 construct: purchased Carna 08-135
Method in brief: (§1)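 KinEASE-TK HTRF readout: enzyme at 0.2 nM (FGFR1, FGFR3) preincubated 10 min at RT with 10-point 3-fold compound dilutions before TK-substrate/ATP start.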

FGFR2 = molecular target: T2, FGFR2 (Homo sapiens, UniProt P21802); assay: FGFR2 Biochemical Caliper Assay (KinEASE-TK kit); details: 0.07 nM FGFR2; compound incubated with protein 10 min, reaction 45 min at RT; read-out: FGFR2 Cliper IC50
T2 construct: purchased Carna 08-134
T2 sequence (P21802 22-821): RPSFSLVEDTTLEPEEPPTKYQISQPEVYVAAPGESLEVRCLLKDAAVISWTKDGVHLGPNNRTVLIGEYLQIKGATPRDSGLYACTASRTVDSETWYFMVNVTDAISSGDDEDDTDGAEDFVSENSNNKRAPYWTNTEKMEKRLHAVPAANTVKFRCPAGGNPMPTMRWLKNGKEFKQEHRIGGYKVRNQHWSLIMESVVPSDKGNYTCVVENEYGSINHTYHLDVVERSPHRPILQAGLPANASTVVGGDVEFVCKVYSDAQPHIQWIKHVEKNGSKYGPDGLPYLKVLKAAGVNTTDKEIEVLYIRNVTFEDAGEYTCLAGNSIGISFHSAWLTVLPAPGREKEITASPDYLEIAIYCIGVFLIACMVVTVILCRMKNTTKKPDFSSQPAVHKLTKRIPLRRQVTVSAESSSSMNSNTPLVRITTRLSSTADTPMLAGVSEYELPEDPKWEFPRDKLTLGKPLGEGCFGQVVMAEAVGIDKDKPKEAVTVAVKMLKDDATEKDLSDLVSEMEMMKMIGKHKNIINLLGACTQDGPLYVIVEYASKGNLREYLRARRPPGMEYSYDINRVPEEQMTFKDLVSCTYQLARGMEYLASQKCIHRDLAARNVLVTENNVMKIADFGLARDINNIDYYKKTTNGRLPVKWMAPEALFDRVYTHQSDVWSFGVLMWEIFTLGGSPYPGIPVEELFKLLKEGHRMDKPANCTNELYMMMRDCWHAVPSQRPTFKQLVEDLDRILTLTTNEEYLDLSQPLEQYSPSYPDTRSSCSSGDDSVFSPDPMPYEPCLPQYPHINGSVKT

[1] = Pharmacokinetics in SD Rat; type: in vivo, Sprague-Dawley (SD) rat; details: Sprague-Dawley, male SD rat, plasma; for clearance: IV 3 mg/kg; for AUC(0-inf) / half-life / Cmax: PO 15 mg/kg (IV used for Clearance); for Cmax: read-out: Cmax
Procedure: Animal studies were done as approved protocols by the Institutional Animal Care and Use Committee at INVIVO Biotech Co., Ltd.
Animal information: Sprague-Dawley (SD) rat, SPF, 6-8 weeks, Male, weight 200-250 g, purchased from Beijing Vital River Lab (Beijing, People's Republic of China).
Formulation: Prepare 1.5 mg/ml and 0.6 mg/ml compound solution in […](20% HPβCD) for PO and IV respectively, dosing immediately after preparation.
Administration: PO and IV;

FGFR1 = molecular target: T3, FGFR1 (Homo sapiens, UniProt P11362); assay: FGFR1 Biochemical Caliper Assay (KinEASE-TK kit); details: ratio FGFR1/FGFR2 of the biochemical assay
T3 construct: purchased Carna 08-133
T3 sequence (P11362 22-822): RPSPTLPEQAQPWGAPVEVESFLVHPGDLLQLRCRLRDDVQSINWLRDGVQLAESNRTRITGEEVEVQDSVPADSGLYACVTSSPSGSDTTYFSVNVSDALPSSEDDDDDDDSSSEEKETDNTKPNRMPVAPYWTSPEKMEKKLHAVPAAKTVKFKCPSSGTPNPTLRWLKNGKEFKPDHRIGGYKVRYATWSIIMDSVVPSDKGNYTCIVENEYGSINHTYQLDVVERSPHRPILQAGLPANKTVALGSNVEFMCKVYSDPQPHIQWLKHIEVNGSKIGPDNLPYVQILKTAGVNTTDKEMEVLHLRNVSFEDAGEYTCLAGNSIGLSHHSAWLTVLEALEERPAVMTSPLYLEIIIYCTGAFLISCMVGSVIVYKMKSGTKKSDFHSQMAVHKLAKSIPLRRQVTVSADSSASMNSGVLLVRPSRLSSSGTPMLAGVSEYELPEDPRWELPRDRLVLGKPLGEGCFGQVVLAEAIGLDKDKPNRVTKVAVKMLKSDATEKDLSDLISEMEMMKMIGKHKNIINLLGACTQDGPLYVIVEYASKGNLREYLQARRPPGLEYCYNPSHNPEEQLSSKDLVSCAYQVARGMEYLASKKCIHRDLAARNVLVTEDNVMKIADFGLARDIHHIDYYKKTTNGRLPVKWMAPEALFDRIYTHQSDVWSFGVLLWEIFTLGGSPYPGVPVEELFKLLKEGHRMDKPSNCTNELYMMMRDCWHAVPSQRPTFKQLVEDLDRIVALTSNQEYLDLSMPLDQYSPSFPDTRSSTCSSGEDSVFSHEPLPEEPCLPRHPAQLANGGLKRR
Method in brief: as §1

SNU16 cells = assay: SNU16 Cancer Cell Line Proliferation Assay (CellTiter-Glo); type: cell-based; details: Homo sapiens, SNU-16, 72 h
Method in brief: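 SNU16 cells at 5000/well exposed to 9-point 3-fold serial compound dilutions (DMSO control) for 72 h at 37 °C, 5% CO2. Viability read by luminescence; IC50 calculated from dose-response.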

T1 sequence (P22607 23-806): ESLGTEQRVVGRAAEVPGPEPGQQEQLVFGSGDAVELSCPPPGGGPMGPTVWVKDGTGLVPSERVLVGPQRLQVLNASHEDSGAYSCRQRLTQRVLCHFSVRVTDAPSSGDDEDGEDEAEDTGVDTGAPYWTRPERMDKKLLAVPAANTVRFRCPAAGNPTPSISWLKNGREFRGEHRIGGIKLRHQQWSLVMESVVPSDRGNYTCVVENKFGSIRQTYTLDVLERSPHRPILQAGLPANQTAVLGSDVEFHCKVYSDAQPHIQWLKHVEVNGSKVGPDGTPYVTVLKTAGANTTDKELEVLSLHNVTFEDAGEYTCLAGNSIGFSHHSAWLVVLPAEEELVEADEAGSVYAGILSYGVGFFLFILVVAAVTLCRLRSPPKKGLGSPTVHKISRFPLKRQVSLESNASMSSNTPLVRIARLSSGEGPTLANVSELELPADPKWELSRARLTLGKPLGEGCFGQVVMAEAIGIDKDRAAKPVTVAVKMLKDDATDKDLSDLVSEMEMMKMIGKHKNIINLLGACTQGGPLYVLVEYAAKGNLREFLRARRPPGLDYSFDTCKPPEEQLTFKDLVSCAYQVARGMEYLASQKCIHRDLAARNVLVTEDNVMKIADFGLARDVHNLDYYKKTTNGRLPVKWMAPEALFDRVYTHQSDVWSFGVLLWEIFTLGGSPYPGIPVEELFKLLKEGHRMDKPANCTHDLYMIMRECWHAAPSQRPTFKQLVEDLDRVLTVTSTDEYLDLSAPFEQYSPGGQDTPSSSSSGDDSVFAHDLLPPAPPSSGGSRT

SMILES | Selectivity FGFR3/FGFR2 (FGFR3) | IC50 (FGFR2) | clearance [1] | AUC(0-inf) [1] | half-life [1] | Cmax [1] | Selectivity FGFR1/FGFR2 (FGFR1) | IC50 (SNU16 cells)
C=C(F)C(=O)Nc1ccc(-c2nn3ncnc(N)c3c2-c2ccc(C(=O)NC3(C(F)(F)F)CC3)c(OC)c2)cc1 [Compound 308] | A (Selectivity of FGFR3/FGFR2 less than 150 but greater than or equal to 100) | > 0.01 µM | 1.02 L/h/kg | 3.76 µg·h/mL | 2.4 h | 1.18 µg/mL | C (Selectivity of FGFR1/FGFR2 less than 200 but greater than or equal to 100) | ≤ 0.01 µM
C=CC(=O)Nc1ccc(-c2c(-c3ccc(C(=O)NCC(F)(F)F)c(OC)c3)c3c(N)ncc(C#N)c3n2C)cc1 [Compound 28, 4-(2-(4-acrylamidophenyl)-4-amino-7-cyano-1-methyl-1H-pyrrolo[3,2-c]pyridin-3-yl)-2-methoxy-N-(2,2,2-trifluoroethyl)benzamide] | B (Selectivity of FGFR3/FGFR2 less than 100 but greater than or equal to 25) | < 0.005 µM | 1.14 L/h/kg | 1.24 µg·h/mL | 0.98 h | 0.509 µg/mL | A (Selectivity of FGFR1/FGFR2 less than 500 but greater than or equal to 300) | ≤ 0.01 µM
C=C(F)C(=O)Nc1ccc(-c2c(-c3ccc(C(=O)NCC(F)(F)F)c(OC)c3)c3c(N)ncc(C#N)c3n2C)cc1 [Compound 96, 4-(4-amino-7-cyano-2-(4-(2-fluoroacrylamido)phenyl)-1-methyl-1H-pyrrolo[3,2-c]pyridine-3-yl)-2-methoxy-N-(2,2,2-trifluoroethyl)benzamide] | A+ (Selectivity of FGFR3/FGFR2 greater or equal to 150) | < 0.005 µM | 0.186 L/h/kg | 2.7 µg·h/mL | 6 h | 0.621 µg/mL | A+ (Selectivity of FGFR1/FGFR2 greater or equal to 500) | ≤ 0.01 µM
C=C(F)C(=O)Nc1ccc(-c2nn3ncnc(N)c3c2-c2ccc(C(=O)NC3CC3(F)F)c(OC)c2)cc1 (stereo not shown) [Compound 193, 4-(4-amino-6-(4-(2-fluoroacrylamido)phe-nyl)pyrazolo[5,1-f][1,2,4]triazin-5-yl)-N-(2,2-difluorocyclopropyl)-2-methoxybenzamide] | A+ (Selectivity of FGFR3/FGFR2 greater or equal to 150) | 0.005 to 0.01 µM | 0.504 L/h/kg | 4.57 µg·h/mL | 3.6 h | 1.39 µg/mL | A+ (Selectivity of FGFR1/FGFR2 greater or equal to 500) | ≤ 0.01 µM
C=C(F)C(=O)Nc1ccc(-c2nn3ncnc(N)c3c2-c2ccc(C(=O)NCC3(C(F)(F)F)CC3)c(OC)c2)cc1 [Compound 309] | A+ (Selectivity of FGFR3/FGFR2 greater or equal to 150) | 0.005 to 0.01 µM | 0.66 L/h/kg | 3.1 µg·h/mL | 2.6 h | 0.957 µg/mL | A+ (Selectivity of FGFR1/FGFR2 greater or equal to 500) | ≤ 0.01 µM
